Entries after “also recorded” stand apart in the source; their conditions may differ.
Experiments:
[1] = target: T1, fibrin clots formed from purified human fibrinogen and human α thrombin (Homo sapiens, UniProt P02671+P02675+P02679); assay: Fibrin clot turbidity (A405), purified fibrinogen clotted with thrombin in microplates; format: biochemical; details: for polyP concentration exerting maximal effect on turbidity: 2.6 mg/mL citrate-free fibrinogen, 1 nM thrombin (FIG. 8)
T1 construct: purchased Enzyme Research Laboratories (South Bend, Ind.)
T1 sequence (P02671 20-644 isoform P02671-2 limits assumed): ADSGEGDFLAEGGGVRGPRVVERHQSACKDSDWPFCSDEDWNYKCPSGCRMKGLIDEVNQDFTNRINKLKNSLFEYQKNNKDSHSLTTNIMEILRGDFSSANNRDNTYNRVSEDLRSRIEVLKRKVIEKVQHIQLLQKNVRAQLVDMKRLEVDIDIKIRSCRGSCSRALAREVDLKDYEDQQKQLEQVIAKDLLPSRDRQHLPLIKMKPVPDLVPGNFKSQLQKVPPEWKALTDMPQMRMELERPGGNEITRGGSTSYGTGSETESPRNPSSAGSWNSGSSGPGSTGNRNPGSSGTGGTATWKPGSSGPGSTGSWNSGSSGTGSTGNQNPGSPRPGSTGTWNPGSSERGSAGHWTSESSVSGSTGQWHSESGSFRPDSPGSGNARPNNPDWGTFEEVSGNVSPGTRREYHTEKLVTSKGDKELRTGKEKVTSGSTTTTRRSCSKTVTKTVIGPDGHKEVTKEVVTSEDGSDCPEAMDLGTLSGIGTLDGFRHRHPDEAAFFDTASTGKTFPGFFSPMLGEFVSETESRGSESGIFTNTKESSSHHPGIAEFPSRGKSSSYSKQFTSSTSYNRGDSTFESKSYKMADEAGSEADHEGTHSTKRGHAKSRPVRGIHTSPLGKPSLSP
T1 sequence (P02675 31-491): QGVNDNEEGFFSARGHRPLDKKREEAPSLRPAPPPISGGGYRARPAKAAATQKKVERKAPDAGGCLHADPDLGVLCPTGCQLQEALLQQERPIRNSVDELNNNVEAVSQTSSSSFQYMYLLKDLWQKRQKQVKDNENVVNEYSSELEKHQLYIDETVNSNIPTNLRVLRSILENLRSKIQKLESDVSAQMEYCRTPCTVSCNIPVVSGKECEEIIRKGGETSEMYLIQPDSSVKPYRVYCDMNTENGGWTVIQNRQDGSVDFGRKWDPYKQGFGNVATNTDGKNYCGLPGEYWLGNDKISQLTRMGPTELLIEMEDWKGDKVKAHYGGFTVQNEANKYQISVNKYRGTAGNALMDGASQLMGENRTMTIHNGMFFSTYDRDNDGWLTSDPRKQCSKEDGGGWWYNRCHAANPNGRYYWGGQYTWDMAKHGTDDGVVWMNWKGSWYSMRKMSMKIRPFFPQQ
T1 sequence (P02679 27-437 isoform P02679-2 limits assumed): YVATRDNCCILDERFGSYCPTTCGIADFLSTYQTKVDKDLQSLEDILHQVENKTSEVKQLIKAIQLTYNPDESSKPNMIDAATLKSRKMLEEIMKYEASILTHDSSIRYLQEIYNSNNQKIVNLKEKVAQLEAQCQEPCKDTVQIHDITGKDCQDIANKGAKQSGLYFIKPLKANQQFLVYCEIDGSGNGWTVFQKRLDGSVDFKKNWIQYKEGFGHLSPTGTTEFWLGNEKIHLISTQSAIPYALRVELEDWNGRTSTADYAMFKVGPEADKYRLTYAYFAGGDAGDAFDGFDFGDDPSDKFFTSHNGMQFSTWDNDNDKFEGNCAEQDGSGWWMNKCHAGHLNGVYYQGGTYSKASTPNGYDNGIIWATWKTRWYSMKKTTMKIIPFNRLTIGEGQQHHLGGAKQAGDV
Experimental: The in vitro studies reported here utilize a microplate-based method to evaluate the formation of fibrin clots, which are prepared by mixing together purified fibrinogen and thrombin. Once fibrinogen is cleaved to fibrin, the fibrin monomers spontaneously polymerize to yield a three-dimensional gel, or clot. These fibrin polymers scatter visible light, resulting in increased turbidity which can monitored spectrophotometrically to detect clotting.
Fibrin clots were formed in 96-well polystyrene microplates (Corning Inc., Corning, N.Y.) by first preincubating fibrinogen with polyP in TBS plus the indicated CaCl2 concentrations. (Preincubations of fibrinogen with calcium ions were for 15 minutes unless otherwise stated.) Thrombin in TBS plus the same concentration of CaCl2 was then added to trigger clot formation. Reactant concentrations were typically 2.6 mg/mL fibrinogen, 62.5 pM to 8 nM thrombin, 0 to 8 mM polyP, and 0 to 5 mM CaCl2 in a total volume of 200 μL. In some studies, 0 to 10 U/mL unfractionated heparin or 1 mM iodoacetamide were also included. Clotting was evaluated by monitoring the change in turbidity (A405) for varying times (typically, 1 hour) at room temperature using a Spectramax microplate reader (Molecular Devices Corporation, Sunnyvale, Calif.). […] Final turbidities (A405) of fibrin clots were typically quantified after the clots had matured for 60 minutes.

fibrin fibrils [2] = target: T2, fibrin fibrils (Homo sapiens, UniProt P02671+P02675+P02679); assay: Fibril size determination (relative mass-length ratio from wavelength scan); format: biochemical; details: 1 mM polyP; 2.6 mg/mL fibrinogen, 3 nM thrombin, 2.5 mM calcium ions
T2 construct: purchased Enzyme Research Laboratories (South Bend, Ind.)
T2 sequence (P02671 20-644 isoform P02671-2 limits assumed): T1 sequence (P02671 20-644 isoform P02671-2 limits assumed)
T2 sequence (P02675 31-491): T1 sequence (P02675 31-491)
T2 sequence (P02679 27-437 isoform P02679-2 limits assumed): T1 sequence (P02679 27-437 isoform P02679-2 limits assumed)
Description: Previous studies of fibrin clot structure have shown that the final optical density of fibrin clots is primarily a function of the thickness of the fibrils formed. It is possible to estimate the mass-length ratios of fibrin fibrils by measuring the optical density of clots at a series of wavelengths of light, using a suitable mathematical analysis of the data. Such analyses of fibrin clots were made by mixing fibrinogen and thrombin in the presence of calcium ions and varying concentrations of polyP, in order to determine the effect of polyP on the mass-length ratio of the fibrils (FIG. 5(A)). […] When fibrin clots formed in the presence of calcium ions and varying polyP concentrations were visualized using scanning electron microscopy, the fibrin fibrils had increased thickness as the polyP concentration increased (FIGS. 5(C-E)).
Relative fibril mass to length ratios were determined using a modification of the method of Carr and Gabriel for clots with high turbidity. Briefly, fibrin clots were allowed to mature for 2 hours after thrombin addition, after which the absorbance was scanned from 400 to 800 nm on a Spectramax microplate reader. A plot of 1/τ*λ^3(y axis) versus 1/λ^2 (x axis) was used to determine the y intercept, the inverse of which is proportional to the mass-length ratio of the fibers. […]

[3] = target: T3, fibrin cross-linking by factor XIIIa (Homo sapiens, UniProt P02671+P02675+P02679); assay: Fibrin cross-link formation (SDS-PAGE); format: biochemical; details: 37° C., data not shown
T3 construct: changing the rate or extent of fibrin cross-linking by factor XIIIa; purchased Enzyme Research Laboratories (South Bend, Ind.)
T3 sequence (P02671 20-644 isoform P02671-2 limits assumed): T1 sequence (P02671 20-644 isoform P02671-2 limits assumed)
T3 sequence (P02675 31-491): T1 sequence (P02675 31-491)
T3 sequence (P02679 27-437 isoform P02679-2 limits assumed): T1 sequence (P02679 27-437 isoform P02679-2 limits assumed)
Experimental: Rates of a and y cross-link formation were studied in clotting reactions carried out as described for turbidity measurements using purified fibrinogen, except that fibrin clots were formed in polypropylene tubes at 37° C. and reactions were stopped at various times by adding an equal volume of 2×SDS sample buffer (100 mM Tris-HCl, 1 mM dithiothreitol, 4% sodium dodecyl sulfate (SDS), 0.02% bromophenol blue, 20% glycerol, pH 6.8) with immediate boiling at 95° C. for 5 minutes. Samples (10 μL) were then subjected to SDS-PAGE using 7.5% polyacrylamide gels and stained with Gelcode (Pierce, Rockford, Ill.) according to the manufacturer's directions.

[4] = target: T4, fibrin clots / human plasmin (Homo sapiens, UniProt P02671+P02675+P02679); assay: Fibrinolysis of fibrin clots by plasmin; format: biochemical; details: 1 mM polyP, 1 mg/mL fibrinogen, 2.5 mM CaCl2, 8 nM plasmin, 1 nM thrombin; clots without polyP lysed quickly
T4 construct: purchased Enzyme Research Laboratories (South Bend, Ind.)
T4 sequence (P02671 20-644 isoform P02671-2 limits assumed): T1 sequence (P02671 20-644 isoform P02671-2 limits assumed)
T4 sequence (P02675 31-491): T1 sequence (P02675 31-491)
T4 sequence (P02679 27-437 isoform P02679-2 limits assumed): T1 sequence (P02679 27-437 isoform P02679-2 limits assumed)
Experimental: FIG. 6 is a graph of the time course of fibrinolysis of fibrin clots. Fibrinogen (1 mg/mL) was preincubated for 15 minutes in the presence of 2.5 mM CaCl2 with 1 mM polyP (▾) or without polyP (O), after which 8 nM plasmin was added followed immediately by 1 nM thrombin. Fibrin clots were allowed to form for 30 minutes, after which their turbidities were measured. The data are plotted as A405 values normalized to the initial A405 value for each curve.
In these experiments, clots were formed by mixing purified human fibrinogen, human plasmin, and human thrombin in the presence of calcium ions, with or without polyP. Clot lysis was quantified by measuring the decrease in optical density over time (following a 30 minute initial clot formation). […] (FIG. 6)

fibrin fibrils [5] = target: T2, fibrin fibrils; assay: Scanning electron microscopy of fibrin clots (fibril thickness); format: biochemical; details: 2.6 mg/mL fibrinogen, 2.5 mM CaCl2, 3 nM thrombin, without polyP 26.5±0.7 nm
Experimental: Fibrin clots formed as described above for turbidity measurements were allowed to mature for 2 hours after thrombin addition. Clots were washed 4 times in 0.1 M cacodylate, fixed in Karnovsky's gluteraldehyde solution overnight, and then processed by stepwise ethanol gradient, critical point drying, and sputter coating with gold palladium. Clots were observed and photographed in six different representative areas using a scanning electron microscope.

human plasma = details: previous studies [20]; cited from earlier work
spleen surface wounds = assay: Porcine splenic trauma model of surgical bleeding; format: in vivo, pig
Experimental: In preliminary experiments, the ability of polyP to enhance the performance of a fibrin sealant composed of purified fibrinogen and thrombin was evaluated. The fibrinogen component of the experimental fibrin sealant was pre-mixed with calcium ions and polyP, while control fibrinogen preparations were pre-mixed with calcium ions without polyP. Shallow surface wounds were then made on the surface of the spleen of anesthetized pigs, after which 0.3 mL each of the fibrinogen and thrombin solutions were applied to the wound surface and allowed to react with each other. Including polyP in the fibrinogen solution shortened the time to cessation of bleeding in this model: 9.8±1.0 minutes with polyP, but 12.3±1.0 minutes without polyP (mean±SEM). Adding polyP to the fibrinogen solution also changed the appearance of fibrin clots formed on the wound surfaces.
Young adult pigs weighing 20-35 kg were anesthetized using intramuscular teletamine/zolazepam/glycopyrolate, followed by intubation and maintenance with inhaled isoflurane. A ventral midline laparotomy was performed and the spleen was externalized. Shallow (approximately 1 mm deep) oval surface wounds measuring approximately 3×5 mm were made using a Metzenbaum scissors. […] Time to cessation of bleeding was assessed visually. […]

[6] = target: T1, fibrin clots formed from purified human fibrinogen and human α thrombin; assay: Fibrin clot turbidity (A405), purified fibrinogen clotted with thrombin in microplates; format: biochemical; details: up to 20 U/mL unfractionated heparin, 500 μM polyP

## NC(=O)CI [iodoacetamide, reference compound]
[1]; transglutaminase inhibitor added to clotting mixtures, data not shown
  effect of iodoacetamide on the enhancement of final clot turbidity by polyP: failed to antagonize the enhancement of final clot turbidity by polyP

## Polyphosphate
Fibrin fibrils [2]
  mass-length ratio of fibrin fibrils compared to clots formed in the absence of polyP: more than three times larger
[3]
  rate of formation of cross-linked fibrin chains: appeared to be the same with or without polyP; also recorded: failed to identify any impact of polyP
[4]
  resistance of clots to fibrinolysis: highly resistant to lysis by plasmin
[1]; 2 mM Ca2+
  polyP concentration exerting maximal effect on turbidity: 1 mM
[1]; 2.5 mM Ca2+
  polyP concentration exerting maximal effect on turbidity: 1 to 2 mM
[1]; 3 mM Ca2+
  polyP concentration exerting maximal effect on turbidity: 2 to 4 mM
[1]; 5 mM Ca2+
  polyP concentration exerting maximal effect on turbidity: 3 to 8 mM
[1]; expressed as phosphate monomer, 2.6 mg/mL fibrinogen, 8 nM thrombin, 2.5 mM calcium chloride (FIG. 3)
  polyP concentration giving optimal enhancement of final clot turbidity: approximately 1 mM
[1]; in the absence of Ca2+
  effect on turbidity of fibrin clots: did not increase the turbidity of fibrin clots
[1]; mM Ca2+ present, regardless of the amount of thrombin added
  effect on final clot turbidity: markedly increased final clot turbidity
[1]; preactivated factor XIIIa added to the clotting mixtures, data not shown
  effect on fibrin clot turbidity with added factor XIIIa: still increased fibrin clot turbidity
[1]; purified fibrinogen plus thrombin
  effect on thrombin clotting time: lack of effect
[1]; with or without 1 mM iodoacetamide, data not shown
  enhancement of final clot turbidity with factor XIIIa inhibitor: approximately equally well in the presence or absence of iodoacetamide
Fibrin fibrils [5]; 100 μM polyP
  mean fibril thickness (±standard error): 33.6±1.0 nm
Fibrin fibrils [5]; 500 μM polyP
  mean fibril thickness (±standard error): 54.2±1.3 nm
Fibrin fibrils [5]; 1 mM polyP
  mean fibril thickness (±standard error): 73.4±1.5 nm
Human plasma
  effect on clotting time of human plasma: shortens the clotting time of human plasma
  effect on clotting time when thrombin was added to plasma: did not shorten clotting times
Spleen surface wounds; fibrin sealant, polyP in the fibrinogen solution, 0.3 mL each of fibrinogen and thrombin solutions on spleen wound, without polyP 12.3±1.0 minutes
  time to cessation of bleeding (mean±SEM): 9.8 ± 1.0 min
Spleen surface wounds; fibrinogen with polyP versus without polyP (FIG. 7)
  appearance of fibrin seals formed on the wound surfaces: more opaque

## heparin [reference compound]
[1]; heparin 0 to 10 units/mL, data not shown
  magnitude of the turbidity increase relative to polyP: markedly lower than that observed with polyP
[1]; heparin examined from 0 to 10 units/mL, data not shown
  effect on fibrin turbidity: increased fibrin turbidity in a dose-dependent fashion
[6]
  effect of added heparin on the polyP effect on turbidity: did not reduce the effect of polyP on turbidity
